Assay results taken from PubChem BioAssay AID248 (DTP/NCI, 2004).
Values joined by “and” are separate entries in the source; they are usually repeats but may differ in a detail not shown here. Equal entries are not always repeated. Inconclusive results and toxic doses are left out. No stated cut-off is given here; in the data, active means T/C of 150% or more; inactive means T/C below 125%.

Tested on: L1210 leukemia ip in BDF1 mice, survival T/C
Test: NCI In Vivo Anticancer Drug Screen. Data for tumor model L1210 Leukemia (intraperitoneal) in B6D2F1 (BDF1) mice
Conditions: endpoint: mean survival time, higher = longer survival
Summary of the method: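 Antitumor effect is assessed in tumor-bearing animals. Survival in the compound arm is compared with a vehicle-dosed control arm and expressed as their quotient.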

[1] = dose: 100.0 mg/kg/injection, schedule: Q01DX009 (ip), vehicle: Klucel (hydroxypropylcellulose) (HPC)
[2] = dose: 100.0 mg/kg/injection, schedule: Q04DX003 (ip), vehicle: Klucel (hydroxypropylcellulose) (HPC)
[3] = dose: 200.0 mg/kg/injection, schedule: Q01DX009 (ip), vehicle: Klucel (hydroxypropylcellulose) (HPC)
[4] = dose: 200.0 mg/kg/injection, schedule: Q04DX003 (ip), vehicle: Klucel (hydroxypropylcellulose) (HPC)
[5] = dose: 400.0 mg/kg/injection, schedule: Q01DX009 (ip), vehicle: Klucel (hydroxypropylcellulose) (HPC)
[6] = dose: 400.0 mg/kg/injection, schedule: Q04DX003 (ip), vehicle: Klucel (hydroxypropylcellulose) (HPC)
[7] = dose: 50.0 mg/kg/injection, schedule: Q01DX009 (ip), vehicle: saline with Tween-80
[8] = dose: 100.0 mg/kg/injection, schedule: Q01DX009 (ip), vehicle: saline with Tween-80
[9] = dose: 100.0 mg/kg/injection, schedule: Q04DX003 (ip), vehicle: saline with Tween-80
[10] = dose: 200.0 mg/kg/injection, schedule: Q04DX003 (ip), vehicle: saline with Tween-80
[11] = dose: 400.0 mg/kg/injection, schedule: Q04DX003 (ip), vehicle: saline with Tween-80
[12] = dose: 100.0 mg/kg/injection, schedule: Q01DX001 (ip), vehicle: Klucel (hydroxypropylcellulose) (HPC)
[13] = dose: 200.0 mg/kg/injection, schedule: Q01DX001 (ip), vehicle: Klucel (hydroxypropylcellulose) (HPC)
[14] = dose: 400.0 mg/kg/injection, schedule: Q01DX001 (ip), vehicle: Klucel (hydroxypropylcellulose) (HPC)
[15] = dose: 200.0 mg/kg/injection, schedule: Q01DX009 (ip), vehicle: saline with Tween-80
[16] = dose: 100.0 mg/kg/injection, schedule: Q01DX005 (ip), vehicle: saline
[17] = dose: 200.0 mg/kg/injection, schedule: Q01DX005 (ip), vehicle: saline

Measured: T/C

COc1ccc(CCN2CSC(=S)N(CCc3ccc(OC)c(OC)c3)C2)cc1OC
inactive: [1] 97 % of control | [2] 97 % of control | [3] 100 % of control | [4] 97 % of control | [5] 94 % of control | [6] 95 % of control

C#CCNCc1ccccc1
inactive: [7] 101 % of control and 92 % of control | dose: 100.0 mg/kg/injection, schedule: Q01DX001 (ip), vehicle: saline 100 % of control | [8] 101 % of control and 106 % of control | dose: 100.0 mg/kg/injection, schedule: Q04DX002 (ip), vehicle: saline 94 % of control and 96 % of control and 108 % of control | dose: 100.0 mg/kg/injection, schedule: Q04DX003 (ip), vehicle: saline 98 % of control | dose: 200.0 mg/kg/injection, schedule: Q01DX001 (ip), vehicle: saline 96 % of control | dose: 200.0 mg/kg/injection, schedule: Q04DX002 (ip), vehicle: saline 101 % of control (2×) and 112 % of control | dose: 200.0 mg/kg/injection, schedule: Q04DX003 (ip), vehicle: saline 101 % of control | dose: 400.0 mg/kg/injection, schedule: Q01DX001 (ip), vehicle: saline 98 % of control

COc1cc([N+](=O)[O-])c2nc(C(Br)(Br)Br)ccc2c1[N+](=O)[O-]
inactive: dose: 50.0 mg/kg/injection, schedule: Q01DX001 (ip), vehicle: carboxymethylcellulose (CMC) 105 % of control | dose: 100.0 mg/kg/injection, schedule: Q01DX001 (ip), vehicle: carboxymethylcellulose (CMC) 111 % of control | dose: 200.0 mg/kg/injection, schedule: Q01DX001 (ip), vehicle: carboxymethylcellulose (CMC) 96 % of control | dose: 400.0 mg/kg/injection, schedule: Q01DX001 (ip), vehicle: carboxymethylcellulose (CMC) 103 % of control

O=Cc1ccc(C=O)cc1
inactive: [9] 94 % of control | [10] 105 % of control | [11] 106 % of control

Cc1ccc(S(=O)(=O)N=[N+]=[N-])cc1
inactive: [12] 95 % of control | [1] 107 % of control | [2] 95 % of control | [13] 105 % of control | [3] 107 % of control | [4] 104 % of control | [14] 100 % of control | [5] 105 % of control | [6] 107 % of control

CN(C)C(=O)NC1CCc2ccccc21 (centres undefined)
inactive: dose: 100.0 mg/kg/injection, schedule: Q01DX001 (ip), vehicle: other 95 % of control | dose: 200.0 mg/kg/injection, schedule: Q01DX001 (ip), vehicle: other 93 % of control | dose: 400.0 mg/kg/injection, schedule: Q01DX001 (ip), vehicle: other 93 % of control

Cc1cc(Cl)ccc1NC(=O)OCCSc1ccc(Cl)cc1
inactive: dose: 100.0 mg/kg/injection, schedule: Q01DX001 (ip), vehicle: gum acacia 94 % of control | dose: 100.0 mg/kg/injection, schedule: Q01DX009 (ip), vehicle: gum acacia 94 % of control and 95 % of control | dose: 100.0 mg/kg/injection, schedule: Q04DX003 (ip), vehicle: gum acacia 93 % of control and 94 % of control | dose: 200.0 mg/kg/injection, schedule: Q01DX001 (ip), vehicle: gum acacia 101 % of control | dose: 200.0 mg/kg/injection, schedule: Q01DX009 (ip), vehicle: gum acacia 97 % of control and 91 % of control | dose: 200.0 mg/kg/injection, schedule: Q04DX003 (ip), vehicle: gum acacia 97 % of control | dose: 400.0 mg/kg/injection, schedule: Q01DX001 (ip), vehicle: gum acacia 101 % of control | dose: 400.0 mg/kg/injection, schedule: Q01DX009 (ip), vehicle: gum acacia 93 % of control and 98 % of control | dose: 400.0 mg/kg/injection, schedule: Q04DX003 (ip), vehicle: gum acacia 95 % of control and 90 % of control

CCCN(CCC)C(=O)OCC
inactive: [8] 97 % of control | [15] 100 % of control

Cc1ccccc1C[As](C)(=O)O
inactive: [12] 98 % of control | [13] 118 % of control

CC(=O)OC1C(CF)OC(n2cnc3c(Cl)ncnc32)C1OC(C)=O (centres undefined)
inactive: [16] 98 % of control | [17] 97 % of control

CC(=O)OC1CC2CC1C1C=CCC21 (centres undefined)
inactive: [7] 88 % of control | [8] 86 % of control | dose: 100.0 mg/kg/injection, schedule: Q04DX003 (ip), vehicle: saline sonified 94 % of control | dose: 200.0 mg/kg/injection, schedule: Q04DX003 (ip), vehicle: saline sonified 89 % of control

[N-]=[N+]=NC(c1ccccc1)S(=O)c1ccccc1 (centres undefined)
inactive: dose: 100.0 mg/kg/injection, schedule: Q04DX002 (ip), vehicle: Klucel (hydroxypropylcellulose) (HPC) 90 % of control | dose: 200.0 mg/kg/injection, schedule: Q04DX002 (ip), vehicle: Klucel (hydroxypropylcellulose) (HPC) 108 % of control

COc1ccc(/C=N\NC(=O)CNC(=O)Nc2cccc(Cl)c2)cc1O
inactive: [7] 95 % of control | [8] 92 % of control | [15] 92 % of control

CCCCCCCCCCCCSCCCCSCCCCCCCCCCCC
inactive: [12] 93 % of control | [13] 89 % of control | [14] 91 % of control

CC1C2CCC(C2)C(C)C1Br (centres undefined)
inactive: dose: 100.0 mg/kg/injection, schedule: Q01DX009 (ip), vehicle: other 99 % of control | dose: 100.0 mg/kg/injection, schedule: Q04DX003 (ip), vehicle: other 102 % of control | dose: 200.0 mg/kg/injection, schedule: Q01DX009 (ip), vehicle: other 96 % of control | dose: 200.0 mg/kg/injection, schedule: Q04DX003 (ip), vehicle: other 102 % of control | dose: 400.0 mg/kg/injection, schedule: Q01DX009 (ip), vehicle: other 96 % of control | dose: 400.0 mg/kg/injection, schedule: Q04DX003 (ip), vehicle: other 109 % of control

O=C(O)c1cc([N+](=O)[O-])cc(P(=O)(O)O)c1
inactive: dose: 12.5 mg/kg/injection, schedule: Q01DX001 (ip), vehicle: saline 86 % of control | dose: 12.5 mg/kg/injection, schedule: Q04DX003 (ip), vehicle: saline 96 % of control | dose: 25.0 mg/kg/injection, schedule: Q01DX001 (ip), vehicle: saline 99 % of control | dose: 25.0 mg/kg/injection, schedule: Q04DX003 (ip), vehicle: saline 89 % of control | dose: 50.0 mg/kg/injection, schedule: Q01DX001 (ip), vehicle: saline 87 % of control | dose: 50.0 mg/kg/injection, schedule: Q04DX003 (ip), vehicle: saline 94 % of control | dose: 75.0 mg/kg/injection, schedule: Q01DX009 (ip), vehicle: saline 100 % of control | dose: 115.0 mg/kg/injection, schedule: Q01DX009 (ip), vehicle: saline 92 % of control

CN1CN(c2ccccc2)C2(CCN(CCC3Oc4ccccc4O3)CC2)C1=O
inactive: [12] 102 % of control | [13] 98 % of control | [14] 103 % of control

Oc1ccc(CNCc2ccccc2)c2cccnc12
inactive: dose: 75.0 mg/kg/injection, schedule: Q01DX001 (ip), vehicle: saline 115 % of control

COSc1ccc([N+](=O)[O-])cc1[N+](=O)[O-]
inactive: [9] 96 % of control | [10] 100 % of control | [11] 103 % of control

COC1=C2C[C@@H](C)C[C@@H](OC)[C@@H](O)[C@H](C)/C=C(\C)[C@@H](OC(N)=O)[C@H](OC)/C=C\C=C(/C)C(=O)NC(=CC1=O)C2=O
inactive: dose: 0.13 mg/kg/injection, schedule: Q01DX009 (ip), vehicle: saline with Tween-80 103 % of control | dose: 0.25 mg/kg/injection, schedule: Q01DX009 (ip), vehicle: saline with Tween-80 103 % of control | dose: 0.5 mg/kg/injection, schedule: Q01DX009 (ip), vehicle: saline with Tween-80 98 % of control | dose: 1.0 mg/kg/injection, schedule: Q01DX009 (ip), vehicle: saline with Tween-80 101 % of control | dose: 2.0 mg/kg/injection, schedule: Q01DX009 (ip), vehicle: saline with Tween-80 103 % of control | dose: 4.0 mg/kg/injection, schedule: Q01DX009 (ip), vehicle: saline with Tween-80 108 % of control

NNC(=O)c1ccc(Cl)cc1Nc1ccc(Cl)cc1
inactive: dose: 25.0 mg/kg/injection, schedule: Q01DX009 (ip), vehicle: Klucel (hydroxypropylcellulose) (HPC) 93 % of control | dose: 50.0 mg/kg/injection, schedule: Q01DX009 (ip), vehicle: Klucel (hydroxypropylcellulose) (HPC) 95 % of control | [12] 97 % of control | [1] 91 % of control

OCC1OC(n2cnc3c(SCc4ccccc4)nc(Cl)cc32)C(O)C1O (centres undefined)
inactive: [16] 95 % of control | [17] 93 % of control
